Where two headings read alike, the source gives them in different places.
What was measured:
[1] = system: Bovine Viral Diarrhea Virus (BVDV), NADL strain; test: BVDV cytopathic effect drug-drug combination assay in MDBK cells (XTT), antiviral; assay type: cell-based; details: in combination with IFN-α
[2] = system: Madin-Darby bovine kidney (MDBK) cells; test: BVDV drug-drug combination assay, cytotoxicity to target cells; assay type: cell-based; details: in combination with IFN-α
Method: Phenazine methosulfate (PMS) solution was prepared at 0.15 mg/mL in PBS and stored in the dark at −20° C. XTT/PMS stock was prepared immediately before use by adding 40 μL of PMS per ml of XTT solution. Fifty microliters of XTT/PMS was added to each well of the plate and the plate was reincubated for 4 hours at 37° C. Plates were sealed with adhesive plate sealers and shaken gently or inverted several times to mix the soluble formazan product and the plate was read spectrophotometrically at 450/650 nm with a Molecular Devices Vmax plate reader.

HCV = details: interferon as single agent or with ribavirin; cited from earlier work
HCV RNA replicon ET [3] = test: HCV RNA replicon drug-drug combination (checkerboard, MacSynergy II) antiviral synergy; assay type: cell-based
Method: Compounds and combinations were evaluated in the HCV replicon assay described in Example 2 with changes indicated below.
(§1) The HCV RNA replicon antiviral evaluation assay was utilized to examine the efficacy and cytotoxicity of two compounds (e.g., Drug 1 and Drug 2) in combinations of five versus nine half-log concentrations. The assay was performed using a microtiter plate format for allocation of media, drug, cells, and virus. […] Cells were processed 72 hr later when the cells were still sub-confluent. […] The cytotoxicity was evaluated as the concentration of the drug that reduced cell numbers as described in Example 2.
Compounds of this invention were tested as “Drug 2” at nine concentrations between 0.0078 to 2.0 μM. Interferon-alpha (Sigma) was tested as Drug 1 at 0.005 to 0.5 international units per mL (IU/mL). The data obtained from these checkerboard assays were analyzed with the MacSynergy II (v2.01) (Prichard & Shipman, 1990, Antiviral Res. 14:181-205) and Delta Graph (v1.5d) programs. Each data point used to create three-dimensional plots (FIGS. 1A-1C) was derived from the result of triplicate samples. The statistical relevance of the data was analyzed and plotted at one of three confidence levels (68%, 95% or 99%) to display combinatorial results as additive, synergistic or antagonistic.
Effects of the drug combinations were calculated based on the activity of each compound when tested alone. The expected additive antiviral protection was subtracted from the experimentally determined antiviral activity at each combination concentration resulting in a positive value (synergy), a negative value (antagonism) or zero (additive). […] Slightly synergistic activity and highly synergistic activity have been operationally defined as yielding synergy volumes of 50-100 and >100, respectively.
(§2) Compounds and combinations were evaluated in the HCV replicon assay described in Example 5 with changes noted below.
as §2
(§3) Effects of the drug combinations were calculated based on the activity of each compound when tested alone. The expected additive antiviral protection was subtracted from the experimentally determined antiviral activity at each combination concentration resulting in a positive value (synergy), a negative value (antagonism), or zero (additivity). The results of the combination assays are presented three dimensionally at each combination concentration, yielding a surface of activity extending above (synergy) or below (antagonism) the plane of additivity. The volume of the surface is calculated and expressed as a synergy volume (in units of concentration times concentration times percent; e.g. μM2%, nM2%, nMμM %, etc.) calculated at the 95% confidence interval.

[4] = system: human hepatoma cell line ET; details: for IC90: read-out: Cytotoxicity IC90
Method: The compounds were dissolved in DMSO at five half-log concentrations each, ranging from either 0.02 to 2.0 μM, 0.03 to 3 μM, 2.0 to 20 μM, or 1 to 100 μM. Subconfluent cultures of the ET line were plated out into 96 well plates dedicated for the analysis of cell numbers (cytotoxicity) or antiviral activity and the next day the compounds were added to the appropriate wells. The cells were processed 72 h later when the cells were still subconfluent. […] Cytotoxicity was expressed as IC50 and IC90, the concentration of compound that inhibited cell viability by 50% and 90%, respectively. Compound IC50 and IC90 values were calculated using a colorimetric assay as an indication of cell numbers and cytotoxicity. […] Cyclosporine was also tested by way of comparison.
For single-compound assays, the compounds were dissolved in DMSO at five half-log concentrations each, ranging from either 0.02 to 2 μM or 0.2 to 20 μM. Compound EC50 and EC90 values, as well as IC50 and IC90 values, were determined according to Example 2. […] Cyclosporine A was also tested.

[5] = system: human hepatoma cell line ET; test: HCV RNA replicon drug-drug combination, cytotoxicity volume; details: in combination with Compound 3; FIG. 3B
Method: as §1, §2, §3

HCV RNA replicon ET [6] = test: HCV RNA replicon assay in ET cell line, luciferase (LUC) endpoint, antiviral activity; assay type: cell-based; details: Hepatitis C virus; Example 6 (2′-C-methyl-cytidine combination experiment), single compound; read-out: EC50 of compound alone
Method: The compounds of the present invention were tested for activity against HCV using the methods adapted from those described by Kriger et al., 2001, Journal of Virology, 75:4614-4624, Pietschmann et al., 2002, Journal of Virology 76:4008-4021, and using HCV RNA constructs as described in U.S. Pat. No. 6,630,343. The contents of these references are hereby incorporated by reference in their entireties.
Compounds were examined in the human hepatoma cell line ET (lub ubi neo/ET), a HCV RNA replicon containing a stable luciferase (LUC) reporter. The HCV RNA replicon ET contains the 5′ end of HCV (with the HCV Internal Ribosome Entry Site (IRES) and the first few amino acids of the HCV core protein) which drives the production of a firefly luciferase (LUC), ubiquitin, and neomycin phosphotransferase (NeoR) fusion protein. Ubiquitin cleavage releases the LUC and NeoR proteins. The EMCV IRES element controls the translation of the HCV, […] NS3-NS5. The NS3 protein cleaves the HCV polyprotein to release the mature NS3, NS4A, NS4B, NS5A and NS5B proteins that are required for HCV replication. At the 3′ end of the replicon is the authentic 3′ NTR of HCV.
Cyclosporine A was also tested.

[7] = in combination with 2′-C-methyl-cytidine, 95% confidence interval
[8] = in combination with IFNα, 95% confidence interval
[9] = read-out: Cytotoxicity IC50, Example 2, ET cells, 72 h, colorimetric assay
[10] = Example 2, ET cells, 72 h, colorimetric assay
[11] = read-out: IC50 of compound alone (cytotoxicity), Example 5 (IFNα combination experiment), single compound

| Molecule | cytotoxicity interaction of the combination [2] | antiviral synergy volume (HCV RNA replicon ET [3]; [8]) | IC50 [4, 9] | IC90 [4, 10] | IC50 [4, 11] | further results |
| --- | --- | --- | --- | --- | --- | --- |
| CC=CCC(C)C(O)C1C(=O)NC(CC)C(=O)N(C)C(OCCN(C)C)C(=O)N(C)C(CC(C)C)C(=O)NC(C(C)C)C(=O)N(C)C(CC(C)C)C(=O)NC(C)C(=O)NC(C)C(=O)N(C)C(CC(C)C)C(=O)N(C)C(CC(C)C)C(=O)N(C)C(C(C)C)C(=O)N1C (stereo not shown) [C, 3-(2-N,N-dimethylaminoethoxy)cyclosporin] | Antagonistic cytotoxicity | – | – | – | – | drug interaction, anti-BVDV [1]: Additive |
| interferon | – | – | – | – | – | share of the subject population in which the virus is eradicated (HCV): 33-46% |
| CC=CCC(C)C(O)C1C(=O)NC(CC)C(=O)N(C)C(SCCN(C)C)C(=O)N(C)C(CC(C)(C)O)C(=O)NC(C(C)C)C(=O)N(C)C(CC(C)C)C(=O)NC(C)C(=O)NC(C)C(=O)N(C)C(CC(C)C)C(=O)N(C)C(CC(C)C)C(=O)N(C)C(C(C)C)C(=O)N1C [Compound O, 3-[(R)-2-(N,N-dimethylamino)ethylthio-Sar]-4-(gamma-hydroxymethylleucine)cyclosporin] | Antagonistic cytotoxicity | 122 IU/mLμM % | 13400 nM | > 20000 nM | > 2000 nM | antiviral synergy volume (HCV RNA replicon ET [3]; [7]): 228 μM^2%; drug interaction (antiviral) of the combination (HCV RNA replicon ET [3]; [7]): highly synergistic (Slightly synergistic activity and highly synergistic activity have been operationally defined as yielding synergy volumes of 50-100 and >100, respectively); drug interaction (antiviral) of the combination (HCV RNA replicon ET [3]; in combination with Compound 3 (HCV NS3-4A protease inhibitor), FIG. 3A): additive or mildly synergistic; drug interaction (antiviral) of the combination (HCV RNA replicon ET [3]; [8]): highly synergistic (Slightly synergistic activity and highly synergistic activity have been operationally defined as yielding synergy volumes of 50-100 and >100, respectively); IC50 ([4]; read-out: IC50 of compound alone (cytotoxicity), Example 6, single compound): > 2000 nM; cytotoxicity interaction of the combination [5]: antagonistic cytotoxicity |
| C[C@@]1(O)[C@H](O)[C@@H](CO)O[C@H]1n1ccc(N)nc1=O [2′-C-methyl-cytidine, reference compound] | – | – | – | – | – | EC50 (HCV RNA replicon ET [6]): 750 nM |
| CC=CCC(C)C(O)C1C(=O)NC(CC)C(=O)N(C)C(OC)C(=O)N(C)C(CC(C)(C)O)C(=O)NC(C(C)C)C(=O)N(C)C(CC(C)C)C(=O)NC(C)C(=O)NC(C)C(=O)N(C)C(CC(C)C)C(=O)N(C)C(CC(C)C)C(=O)N(C)C(C(C)C)C(=O)N1C (stereo not shown) [Compound T, 3-(methoxy)-4-(gamma-hydroxymethylleucine)cyclosporin] | – | 6 IU/mLμM % | > 2000 nM | > 2000 nM | > 2000 nM | – |
